Columns and labels:
SUM149 cells = assay: Trypan blue viability assay; type: cell-based, human; conditions: for effect of Cu chelator on DSF-Cu-induced cell death: BCS 100 μM, TM 10 μM
Method: (§1) Cells were treated for 24 h in regular growth medium with Disulfiram (Sigma), CuSO4 (VWR), SOD mimetic (MnTnHex-2-PyP^5+), bathocuproine disulfonate (BCS, Sigma), and tetrathiomolybdate (TM, Sigma). Cell viability was determined by trypan blue exclusion as described previously (Aird et al., 2008) where % viability was calculated as live cells/total cells×100.

rSUM149 cells = assay: Trypan blue viability assay; type: cell-based, human; conditions: for effect of Cu chelator on DSF-Cu-induced cell death: BCS 100 μM, TM 10 μM
Method: as §1

[1] = accepted daily dosing of 250-500 mg, human plasma; cited from earlier work
IBC cells = assay: Trypan blue viability assay, IBC cell lines overall; type: cell-based
Method: as §1

[2] = tested on: ctr1/ctr3Δ mutant MPY17 S. cerevisiae cells; assay: Complementation of S. cerevisiae Cu+-transport mutants; type: cell-based, Saccharomyces cerevisiae; conditions: YPEG media, 30° C., 3 days, absorbance at 600 nm
Method: SEY6210 (wild type) (Robinson et al., 1988) and ctr1/ctr3Δ mutant MPY17 S. cerevisiae cells (Pena et al., 1998) were grown in YPEG media (3% ethanol, 3% glycerol, 1% yeast extract, 2% Bacto Peptone, 2% agar) with addition of 0-50 μM known Cu ionophore, zinc pyrithione (ZPT) (Reeder et al., 2011), or DSF. Cells were allowed to grow at 30° C. for 3 days; growth was assessed by measuring optical density at 600 nm on a Spectramax Plus 384 plate reader (Molecular Devices).

ALDH = assay: ALDEFLUOR assay; type: cell-based, human; conditions: SUM149 cells, 24 h, sub-lethal dose
Method: ALDH enzymatic activity was assessed using the ALDEFLUOR kit (Stem Cell Technologies) according to the manufacturer's instructions. Briefly, cells were incubated with ALDH substrate for 35 minutes at 37° C. The specific ALDH inhibitor diethylaminobenzaldehyde (DEAB) was used as negative control. Sorting gates were established using 7-AAD stained cells for viability and ALDEFLUOR-stained cells treated with DEAB as negative controls. Dot plots from a representative experiment are shown with mean±SEM from four experiments.

[3] = tested on: IBC cells (SUM149, rSUM149); assay: Cell-associated Cu in cell lysates by ICP-HRMS; type: cell-based; conditions: 10 μM Cu, 24 h
Method: Cell lysates were prepared as above. For tumors, a portion of each tumor was placed into tissue lysis buffer (GoldBio Technology) and homogenized using the Bullet Blender Storm and lysis beads (MidSci). Lysates were analyzed for Cu content using a Thermo Scientific Element 2 inductively coupled plasma high-resolution mass spectrometer (ICP-HRMS) at the W. M. Keck Elemental Geochemistry Laboratory (University of Michigan, Ann Arbor, Mich.), and Cu content of lysis buffer blank was subtracted from each sample. Values were normalized to protein for reporting as ng Cu/mg protein.

Nrf2 = Nrf2 activity assay (ARE luciferase reporter); type: cell-based; conditions: Cu 10 μM, DSF 10-20 μM, DSF-Cu 150 nM
Method: Cells in opaque 96-well plates (Greiner Bio-One) were transfected with pGL4.37 (ARE firefly luciferase reporter, Promega) and pGL4.75 (Renilla luciferase control, Promega) plasmids using a 3:1 ratio of […] (Roche Applied Science, Indianapolis, Ind.) to DNA. The next day, cells were treated with as indicated. After 24 h, the Dual-Glo Luciferase Assay System (Promega) was used and luminescence read on a Veritas microplate luminometer (Turner BioSystems). Firefly luminescence was normalized to Renilla luminescence for each sample, and this value normalized to untreated.

[4] = tested on: BCM2 Xenograft brain metastatic cells; conditions: due to upregulation of GSH; cited from earlier work
tumor xenografts = assay: Tumor radiation control curve with MnSOD mimic; type: in vivo

CCN(CC)C(=S)SSC(=S)N(CC)CC [DSF, Disulfiram]
IC50 (SUM149 cells; Homo sapiens, SUM149, DSF alone, 24 h, trypan blue exclusion): ~17 µM
IC50 (rSUM149 cells; Homo sapiens, DSF alone, 24 h, trypan blue exclusion): 25 to 30 µM
plasma concentration [1]: < 2000 nM
concentrations at which DSF induced toxicity (IBC cells; DSF alone): greater than 10 μM

zinc pyrithione [ZPT]
growth of MPY17 cells [2]: grew similarly to the SEY6210 cells

MnTnHexyl-2-PyP^5+
effect of SOD mimetic on DSF-Cu cell death (rSUM149 cells; 100-200 μM SOD mimetic): blocked cell death caused by DSF-Cu treatment

Cc1cc(-c2ccc(S(=O)(=O)O)cc2)c2ccc3c(-c4ccc(S(=O)(=O)O)cc4)cc(C)nc3c2n1 [BCS, bathocuproine disulphonate]
effect of Cu chelator on DSF-Cu-induced cell death (SUM149 cells): almost completely blocked DSF-Cu-induced cell death
effect of Cu chelator on DSF-Cu-induced cell death (rSUM149 cells): almost completely blocked DSF-Cu-induced cell death

O=S(=O)([O-])[O-].[Cu+2] [Cu, CuSO4]
ALDH+ population (ALDH): neither DSF nor Cu alone affected
Cu accumulation [3]: slight increase
Nrf2 transcriptional activity (Nrf2): induced Nrf2 transcriptional activity
cytotoxicity (IBC cells; Cu alone (10 μM), 24 h): not cytotoxic

[SH-].[SH-].[S]=[Mo]=[S] [TM, tetrathiomolybdate]
effect of Cu chelator on DSF-Cu-induced cell death (SUM149 cells): almost completely blocked DSF-Cu-induced cell death
effect of Cu chelator on DSF-Cu-induced cell death (rSUM149 cells): almost completely blocked DSF-Cu-induced cell death

CC(C)C[C@H](NC(=O)[C@H](Cc1ccccc1)NC(=O)c1cnccn1)B(O)O [bortezomib]
fold less sensitive to bortezomib [4]: drugs; brain metastatic cells 60-fold less

MnBuOE
dose modifying factor (tumor xenografts; radiosensitization of xenograft tumors): 1.3
TCD50 dose (tumor xenografts; total RT applied in 5 fractions, treatment pre- and post-RT, saline controls 47Gy): 36.5 Gy

— patent publication US10195164B2, “Use of disulfiram for inflammatory breast cancer therapy” (Duke University, priority 2015, dated 2019)
